Where two headings read alike, the source gives them in different places.
Key:
[1] = Parallel Artificial Membrane Permeability Assay (PAMPA); type: in vitro ADME; conditions: for PAMPA: P_app: 200 uM test compound, 4 hr; for Papp at 4 hr, 200 uM: PAMPA, read-out: PAMPA: P_app
Experimental: 5 uL of 1% lecithin (VWR 0579) dissolved in n-dodecane (Sigma Aldrich D221104) was applied to each well of a MultiScreen IP PAMPA filter plate (Millipore MAIPSWU10) and allowed to equilibrate for 5 minutes. 300 uL of PBS was added to the acceptor plate and 150 uL of 200 uM test compound dissolved in PBS and 30% ethanol was added to the donor wells before incubating the donor plate in the acceptor plate for 4 hr at 500 rpm. 100 uL was sampled from the donor and acceptor wells and the concentrations were measured by liquid chromatography-mass spectrometry (SCIEX 4500) or UV-VIS plate reader (BMG).

[2] = target: T1, YFP-tagged full length 0N4R-Tau P301S aggregates seeded by 416-AD11A lysate (T24 cells) (Homo sapiens, UniProt P10636, P618S); experiment: Tau-AD high throughput screening (counter screen) in T24 cells; type: cell-based; conditions: T24 cells transfected with 416-AD11A lysate
T1 construct: C-terminally YFP-tagged full length 0N4R-Tau carrying a P301S mutation; expressed in transfected cells
T1 sequence (P10636 1-383 isoform P10636-6 P243S): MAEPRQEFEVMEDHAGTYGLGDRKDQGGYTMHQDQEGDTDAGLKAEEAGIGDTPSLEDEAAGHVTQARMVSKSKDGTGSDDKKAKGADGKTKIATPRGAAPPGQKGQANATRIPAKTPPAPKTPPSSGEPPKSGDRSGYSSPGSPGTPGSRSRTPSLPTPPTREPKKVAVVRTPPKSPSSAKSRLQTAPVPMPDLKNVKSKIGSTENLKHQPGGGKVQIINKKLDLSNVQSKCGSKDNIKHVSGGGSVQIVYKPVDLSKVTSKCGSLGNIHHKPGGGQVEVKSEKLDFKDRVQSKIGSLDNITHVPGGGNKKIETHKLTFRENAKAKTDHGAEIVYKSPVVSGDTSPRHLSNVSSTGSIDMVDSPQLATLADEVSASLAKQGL
Experimental: A fragment of the Middle Tempral Gyrus (MTG) from Alzheimer's Disease (AD) patient 2217 was resuspended in 9 volumes of PBS (ml/g of brain) and homogenized 3×12 seconds using a probe homogenizer (Thomas Scientific) with disposable Omni Tip plastic homogenizing probes (Thomas Scinetific Cat No 3409Y77) to generate a 10% brain homogenate (10% AD11-BH). The 10% AD11-BH was clarified of insoluble debris by centrifugation at 800×g for 5 minutes. The resulting supernatant was collected and the protein concentration of this clarified BH (AD11-CBH) was determined by bicinchoninic acid assay (BCA) (Thermo Fisher Cat No. 23227). HEK293 cells stably expressing a C-terminally Clover-tagged truncated 4R-Tau^243-382 transgene containing the P301L and V337M mutations and a C-terminally Ruby-tagged truncated 3R-Tau^243-382 transgene containing the L266V and V337M mutations (128/139 cells) were transfected with the AD11-CBH using lipofectamine 2000 (LF2K) (Thermo Fisher Cat No. 11668500). Briefly, 0.32 μl of LF2K were diluted in 5 μl Opti-MEM (Thermo Scientific Cat No 31985070) per well of a 384-well plate and incubated for 5 min at room temperature (RT). This mixture was added to 0.32 μg of AD11-CBH diluted in 5 μl of PBS per well of a 384-well plate and vortex briefly. The transfection mixture was incubated at room temperature for 90 min. The transfection complexes were subsequently added to a single well of a 384-well plate containing 3500 128/139 cells. After 3 days the cells were harvested, counted and plated at a density of 1 cell/well in a 96-well plate. A clonal cell line containing Clover and Ruby positive Tau aggregates was selected and termed 416-AD11A cells. Following the expansion of these 416-AD11A cells, a cell lysate was prepared by freeze/thaw. The cells from a confluent T175 flask were harvested in 1 ml of PBS containing 1× protease inhibitor cocktail by scraping. The cell suspension was subjected to 4 cycles of freezing in liquid nitrogen for 5 minutes followed by thawing at 37° C. for 5 minutes. The resulting cell lysate was centrifuged at 2000 RPM for 10 minutes to remove the cell debris and the protein concentration of the resulting 416-AD11A lysate was determined by BCA assay and aliquots frozen for future use.
HEK293 cells stably expressing C-terminally YFP-tagged full length 0N4R-Tau carrying a P301S mutation (T24 cells) are plated at a density of 4000 cells per well of a 384-well black walled, clear bottom plate (Greiner Cat No 5678-1091Q) in 60 μl of complete DMEM (DMEM (Corning Cat No 10-013-CV), 10% FBS (VWR Cat No 97068-085, 0.5% Penicilin/streptomycin (Gibco Cat No 15140-122)) containing 0.1 μg/ml Hoechst Dye (Thermo Scientific Cat No H3570). Transfection complexes are prepared by diluting 0.15 μg of 416-AD11A lysate or HEK lysate in 5 μl of PBS per well to be transfected and 0.15 μl of Lipofectamine 2000 (LF2K) (ThermoFisher Cat No 11668500) in 5 μl of Opti-MEM per well to be transfected in separate tubes. The pre-diluted 416-AD11A or HEK lysates and LF2K are subsequently mixed and allowed to incubate for 90 minutes at RT. A 10 μl aliquot of the 416-AD11A or HEK transfection complexes is added to the appropriate wells of the 384-well plate containing the T24 cells using the Bravo liquid handling platform (Agilent). Wells A23-P24 of the 384-well plate are transfected with HEK lysate to act as a reference point for spontaneous aggregation of 0N4R^P301S and for transfection related toxicity. The dilution of test compounds is performed using the Bravo liquid handling platform (Agilent). The control is DMSO in the absence of any test compound. Briefly, 1 μl of each test compound (5 mM stock) in the 384-well test plate was transferred to a 384-well plate (Greiner Cat No 781280) containing 61.5 μl of complete DMEM to generate a working stock of compounds at 80 μM. […]

[3] = target: tau fibrils (Homo sapiens, UniProt P10636); conditions: cited from earlier work
Sequence of tau fibrils (P10636 1-441 isoform P10636-8): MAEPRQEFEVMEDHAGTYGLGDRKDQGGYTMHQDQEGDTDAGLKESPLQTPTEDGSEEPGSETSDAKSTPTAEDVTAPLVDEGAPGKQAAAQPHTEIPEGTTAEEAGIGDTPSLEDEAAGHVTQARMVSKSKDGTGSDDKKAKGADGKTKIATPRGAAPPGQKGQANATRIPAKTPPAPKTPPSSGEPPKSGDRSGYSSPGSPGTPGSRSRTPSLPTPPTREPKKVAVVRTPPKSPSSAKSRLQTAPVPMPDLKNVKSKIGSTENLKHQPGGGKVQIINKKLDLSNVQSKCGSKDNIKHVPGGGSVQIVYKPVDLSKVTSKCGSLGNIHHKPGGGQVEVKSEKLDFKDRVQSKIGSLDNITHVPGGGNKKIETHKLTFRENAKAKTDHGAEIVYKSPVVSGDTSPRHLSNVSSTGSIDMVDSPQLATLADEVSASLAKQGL

Row | Structure (SMILES) | PAMPA: P_app ([1]; pH 5.0) [×10e−6 cm/sec] | PAMPA: P_app ([1]; pH 7.4) [×10e−6 cm/sec] | AD Tau Aggregates (% control) [2] [% control] | Papp at 4 hr, 200 uM ([1]; pH 5.0, 200 uM test compound) [×10⁻⁶ cm/s] | Papp at 4 hr, 200 uM ([1]; pH 7.4, 200 uM test compound) [×10⁻⁶ cm/s] | IC50 ([3]; GTP-1, read-out: measured IC50) [nM] | Kd ([3]; tau PET tracer GTP-1, estimated Kd) [nM]
1 | CCc1ccccc1-c1nn(-c2ccc(F)cc2)c2nc(C(=O)NC)ncc12 [Compound 245] | >50 | >50 | 120 | – | – | – | –
2 | CNC(=O)c1ncc2c(-c3ccccc3)nn(-c3ccc(F)cc3)c2n1 [Compound 246] | >50 | >50 | 120 | – | – | – | –
3 | CNC(=O)c1ncc2c(-c3ccccc3)nn(Cc3ccccc3)c2n1 [Compound 248] | 46.6 | >50 | 95 | – | – | – | –
4 | CNC(=O)c1ncc2c(-c3cc4ccccc4cn3)nn(Cc3ccccc3)c2n1 [Compound 256, 1-benzyl-3-(isoquinolin-3-yl)-N-methyl-1H-pyrazolo[3,4-d]pyrimidine-6-carboxamide] | – | >50 | 100 | > 50 | – | – | –
5 | CC(=O)Nc1ncc2c(-c3ccccc3C)nn(Cc3ccccc3)c2n1 [Compound 266] | >50 | >50 | 98 | – | – | – | –
6 | CC(=O)Nc1ncc2c(-c3ccccc3)nn(Cc3cncc(F)c3)c2n1 [Compound 267] | – | 5.98 | 91 | – | – | – | –
7 | CCC(=O)Nc1ncc2c(-c3ccccc3)nn(Cc3ccc(OC)cc3)c2n1 [Compound 269] | 19.1 | 26.7 | 100 | – | – | – | –
8 | COC(=O)Nc1ncc2c(-c3ccccc3)nn(-c3ccccc3)c2n1 [Compound 274] | 4.6 | 6.3 | 94 | – | – | – | –
9 | CC(=O)Nc1ncc2c(-c3ccccc3)nn(Cc3ccncc3)c2n1 [Compound 279] | 44.7 | >50 | 92 | – | – | – | –
10 | CC(=O)Nc1ncc2c(-c3ccccc3)nn(CC3CCCCC3)c2n1 [Compound 280] | 19.5 | 19.5 | 90 | – | – | – | –
11 | CNC(=O)c1ncc2c(n1)c(-c1ccc(Cl)cc1)nn2-c1ccnc(C(C)(F)F)n1 [Compound 288, 3-(4-chlorophenyl)-1-[2-(1,1-difluoroethyl)pyrimidin-4-yl]-N-methyl-pyrazolo[4,3-d]pyrimidine-5-carboxamide] | – | >50 | 98 | > 50 | – | – | –
12 | CNC(=O)c1ncc2c(C#Cc3ccccc3)nn(-c3ccc(OC(F)F)cc3)c2n1 [Compound 290, 1-(4-(difluoromethoxy)phenyl)-N-methyl-3-(phenylethynyl)-1H-pyrazolo[3,4-d]pyrimidine-6-carboxamide] | – | – | 95 | 16.5 | 39.3 | – | –
13 | FCCC1CCN(c2ccn3c(n2)nc2ccccc23)CC1 [GTP-1] | – | – | – | – | – | 22 | 11

Reference: patent US20240197682A1, “METHOD FOR TREATING NEUROLOGICAL DISEASES USING SUPRAMOLECULE POLYMER THERAPEUTICS” (The Regents of the University of California, priority 2022, published 2024)
